Key:
[1] = Add-on rates of quaternary ammonium salts on dyed and undyed nylon fabrics and weight loss after Launder-Ometer washing; format: physicochemical; conditions: for Add-on rate after 7 washes (%): Launder-Ometer, AATCC test method 61; for Total weight loss after the + 7 washes (%): after finishing and 7 Launder-Ometer washes
Protocol: Nylon fabrics were dyed with 1% on weight fabric (o.w.f.) dye solutions at 95° C. for 90 min. The liquor ratio was 1:50, and the pH of the dye bath was adjusted to pH=3.5 with acetic acid. The dyed fabrics were washed with the AATCC standard detergent after dyeing and then cured at 120° C. for 15 minutes.
The antibacterial finishing baths were prepared by dissolving quaternary ammonium salts in distilled water. The pH value was adjusted to pH=4 with acetic acid. The dyed nylon fabric was dipped in the antibacterial agent solution, padded to a wet pick up of about 60% and cured at an elevated temperature for an extended period.
The finished fabric was washed in a Launder-Ometer, according to AATCC Test Method 61-1994 to evaluate the washing durability. One cycle of Launder-Ometer washing test by this AATCC Test Method is equivalent to about five machine washes in a home laundry practice.
The nylon fabrics were first dyed with two different acid dyes at concentration of 1% on weight fabric (o.w.f) and then treated with the quaternary ammonium salts.
The weight loss of a fabric sample is calculated based on its total weight change after the finishing and washing.

[2] = as above; format: physicochemical; conditions: 6% quaternary salt solution, pH = 3.7, cured 120° C. 30 minutes
[3] = nylon fabric dyed with Acid Blue 113 1% owf
[4] = nylon fabric dyed with Acid Red 88 1% owf

| SMILES | Add-on rate after 7 washes (%) ([1]; Undyed nylon fabric) | Total weight loss after the + 7 washes (%) ([1]; Undyed nylon fabric) | Add-on rate after 7 washes (%) [1, 3] [%] | Total weight loss after the + 7 washes (%) [1, 3] [%] | Add-on rate after 7 washes (%) [1, 4] [%] | Total weight loss after the + 7 washes (%) [1, 4] [%] | Add-on rate (%) ([2]; Undyed nylon fabric) | Add-on rate (%) [2, 3] [%] | Add-on rate (%) [2, 4] [%] |
| --- | --- | --- | --- | --- | --- | --- | --- | --- | --- |
| CCCCCCCCCCCC[N+](C)(C)C.[Br-] [DTAB, Dodecyltrimethyl ammonium bromide] | −3.51 | −1.00 | −3.48 | 0.28 | −3.39 | −0.04 | 2.51 | 3.86 | 3.35 |
| CCCCCCCCCCCC[N+](C)(C)CC(O)C[N+](C)(C)CCCCCCCCCCCC.[Cl-].[Cl-] [Dimer, 1,3-Bis-(N,N-dimethyldodecylammonium chloride)-2-propanol] | −3.20 | −0.47 | −2.54 | −0.25 | −3.08 | −0.09 | 2.73 | 2.29 | 2.99 |
| CCCCCCCCCCCC[N+](C)(C)CC(O)CCl.[Cl-] (stereo not drawn) [Monomer, N-(3-chloro-2-hydroxypropyl)-N,N-dimethyldodecylammonium chloride] | −1.81 | −0.73 | −2.44 | −0.43 | −1.87 | −0.09 | 1.08 | 2.01 | 1.78 |
